Source: patent US20260265244A1, “HETEROCYCLIC COMPOUNDS AS STING ANTAGONISTS” (Boehringer Ingelheim International GmbH, priority 2022, published 2026)

What was measured:
[1] = target: T1, human STING WT (R232) (Homo sapiens, UniProt Q86WV6, H232R); assay: Human STING HTRF binding assay (competitive, Cisbio 64BDSTGPEG)
T1 construct: purchased Cisbio 64BDSTGPEG
Method: Binders to human STING WT (R232) were identified using a competitive HTRF assay format (Cisbio 64BDSTGPEG), which uses d2-labeled STING ligand, a 6His (SEQ ID NO: 2) tagged human STING protein, and an anti 6His (SEQ ID NO: 2) Cryptate-labeled antibody. Compounds compete with the STING ligand-d2 and thereby prevents FRET from occurring, which can be measured by an EnVision™ reader (PerkinElmer).
Assay method: Compounds were delivered as 10 mM DMSO solution, serially diluted by an Agilent Bravo Workstation and transferred to the 384 well assay plate (Perkin Elmer #6005359) using a Cybiwell dispenser. Typically, 8 concentrations were used with the highest concentration at 10 μM or 1 μM in the final assay volume followed by ~1:5 dilution steps. DMSO concentration was set to 1% in the final assay volume. The 384 well assay plate contained 20 test compounds and DMSO in column 23 and 24. A cGAMP standard dilution row was prepared according to the manufacturer and transferred to each assay plate. After transfer of compound solution or dilution buffer for negative (high) and positive (low) controls, 5 μl of the human STING protein (cyclic binding domain (residues 138-379) of the WT R232 human version, fused to a 6 His tag (SEQ ID NO: 2) at the Nter part; 1:50 dilution in detection buffer) were dispensed to all wells except of the positive control, which received detection buffer only. Plates were the centrifuged for 20 sec at 1000 rpm. After that, 10 μl of Anti-6His-Cryptate antibody/Sting ligand-d2 mix was added to all wells using a Multidrop combi dispenser, followed by another sec/1000 rpm centrifugation step. After an incubation of the plates for 180 min at room temperature, […] at […] (HTRF ratio) was measured using an Envison Reader (PerkinElmer).
Data evaluation and calculation: For data evaluation and calculation, HTRF ratios were calibrated using the cGAMP standard curve. After that, the measurement of the low control was set as 0% control and the measurement of the high control was set as 100% control. The IC50 values were calculated using the standard 4 parameter logistic regression formula. Calculation: [y=(a−d)/(1+(x/c)^b)+d], a=low value, d=high value; x=conc M; c=IC50 M; b=slope;

[2] = test system: STING inhibition in human whole blood (IFNα2α production); assay: Human whole blood assay (HWBA): cGAMP-stimulated IFNα2α production; format: cell-based; details: Homo sapiens
Method: For the detection of STING inhibition in physiological environment human whole blood was stimulated by the cyclic dinucleotide cGAMP. Pathway activity was monitored by measuring the IFNα2α production.
Assay method: Compounds were delivered as 10 mM DMSO solution and serial diluted and transferred to the 96-well Cell culture Plate (Corning #3595), prefilled with 20 μl OptiMEM (Gibco #11058-021) in each well, using an Echo acoustic dispenser. Typically, 8 concentrations were used with the highest concentration at 10 μM in the final assay volume followed by ~1:5 dilution steps. DMSO concentration was set to 0.1% in the final assay volume. The 96 well assay plate contained 9 test compounds, a reference compound and DMSO in control wells.
Collection of human whole blood from 3 or more healthy donors (male or female, no medication for 7 days, exception contraceptive and thyroxine) as Na-citrate blood (e.g. 3.8% in Monovettes from Sarstedt) is conducted in parallel. Whole blood was kept at room temperature for a maximum of 3 hours after collection until use in the assay.
160 μl of the whole blood samples were transferred to each well of the 96-well assay plates filled with compound/OptiMEM. All assay plates are prepared as duplicates with blood from different donors. Blood plates were kept at room temperature for 60 minutes and continuous shaking with 450 rpm, covered with the lid, but not sealed.
A 10× cGAMP assay solution was diluted from a 2 mM stock solution in 1×HBSS immediately before use at room temperature. 20 μl of the 10× cGAMP/HBSS were added to all compound and all high control wells, whereas HBSS only was added to all low control wells.
After covering assay plates with aera seals and the lid, blood plates were kept at room temperature for 30 minutes and continuous shaking with 450 rpm, followed by an overnight incubation of 22 h at 37° C. in the incubator, without shaking.
For the detection of IFNα-2α in human plasma, the biotinylated capture antibody (Antibody set IFNA2, Meso Scale Diagnostics #B21VH-3, including coating and capture antibody) was diluted 1:17.5 in Diluent 100 (Meso Scale Diagnostics #R50AA-4, according to the manufacturer. U-Plex MSD GOLD 96-well Small Spot Streptavidin SECTOR Plates (Meso Scale Diagnostics #L45SA-5) were coated with 25 μl diluted capture antibody. Coated plates were incubated for 60 min at room temperature under continuous shaking at 700 rpm. MSD IFNα-2α plates were washed three times with 150 μl wash buffer (1×HBSS, 0.05% Tween).
After blocking the plates with 100 μl block solution/well (1×HBSS with 0.2% Tween, 2% BSA) for 60 min at room temperature and continuous shaking at 700 rpm, plates were emptied as dry as possible by dumping just before continuing with the human plasma. Whole Blood assay plates were centrifuged at 1600 rpm for 10 minutes. 25 μl of supernatant was transferred with a pipetting robotics from each whole blood plate to the corresponding IFNα-2α plate. Plates were sealed with microplate seals and kept at room temperature again under continuous shaking at 700 rpm for two hours. Next MSD IFNα-2α plates were washed three times with 150 μl wash buffer (1×HBSS, 0.05% Tween), before adding 25 μl MSD SULFO-TAG IFNα-2α Antibody solution (1:100 diluted in Diluent 3 (Meso Scale Diagnostics #R50AP-2) to each well of the plates. Afterwards plates were sealed with microplate seals and kept at room temperature again under continuous shaking at 700 rpm for two hours. Finally MSD IFNα-2α plates were washed three times with 150 μl wash buffer (1×HBSS, 0.05% Tween). 150 μl 2×Read buffer was added to each well and plates were immediately measured with the MSD Sector S600 Reader using the vendor barcode.
Data evaluation and calculation: For data evaluation and calculation, % control calculation of each well was based on the mean of high (cGAMP stimulated control) and mean of low (unstimulated control) controls by using the following formula: […]

T1 sequence (Q86WV6 138-379 H232R): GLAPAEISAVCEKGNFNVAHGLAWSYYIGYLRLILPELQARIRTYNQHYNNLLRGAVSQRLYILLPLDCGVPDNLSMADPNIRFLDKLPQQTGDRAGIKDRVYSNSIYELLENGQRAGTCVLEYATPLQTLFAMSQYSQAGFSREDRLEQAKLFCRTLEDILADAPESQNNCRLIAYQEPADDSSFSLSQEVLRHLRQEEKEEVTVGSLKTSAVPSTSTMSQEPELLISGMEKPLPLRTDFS

Row | SMILES | IC50 [1] | IC50 [2]
1 | Cc1nc2nn(CCN3CCOCC3)cc2cc1-n1nc(-c2cccc3nn(C[C@H](O)c4ccccc4)cc23)c(C(C)C)c1C [Example 1, (1R)-2-[4-(5-methyl-1-{6-methyl-2-[2-(morpholin-4-yl)ethyl]-2H-pyrazolo[3,4-b]pyridin-5-yl}-4-(propan-2-yl)-1H-pyrazol-3-yl)-2H-indazol-2-yl]-1-phenylethan-1-ol] | 12.1 nM | 73 nM
2 | Cc1nc2nn(CCCC#N)cc2cc1-n1nc(-c2cccc3nn(C[C@H](O)c4ccccc4)cc23)c(C(C)C)c1C [Example 2, 4-[5-(3-{2-[(2R)-2-hydroxy-2-phenylethyl]-2H-indazol-4-yl}-5-methyl-4-(propan-2-yl)-1H-pyrazol-1-yl)-6-methyl-2H-pyrazolo[3,4-b]pyridin-2-yl]butanenitrile] | 15.8 nM | 54 nM
3 | Cc1nc2nn(CCCN3CCN(C)CC3)cc2cc1-n1nc(-c2cccc3nn(C[C@H](O)c4ccccc4)cc23)c(C(C)C)c1C [Example 7, (1R)-2-[4-(5-methyl-1-{6-methyl-2-[3-(4-methylpiperazin-1-yl)propyl]-2H-pyrazolo[3,4-b]pyridin-5-yl}-4-(propan-2-yl)-1H-pyrazol-3-yl)-2H-indazol-2-yl]-1-phenylethan-1-ol] | 24.6 nM | 61 nM
4 | Cc1nc2nn(C)cc2cc1-n1nc(-c2cccc3nn(C[C@H](OCCO)c4ccccc4)cc23)c(C(C)C)c1C [Example 8, 2-[(1R)-2-[4-(1-{2,6-dimethyl-2H-pyrazolo[3,4-b]pyridin-5-yl}-5-methyl-4-(propan-2-yl)-1H-pyrazol-3-yl)-2H-indazol-2-yl]-1-phenylethoxy]ethan-1-ol] | 14.6 nM | 62 nM
5 | Cc1nc2nn(CCCCO)cc2cc1-n1nc(-c2cccc3nn(C[C@H](O)c4ccccc4)cc23)c(C(C)C)c1C [Example 12, 4-[5-(3-{2-[(2R)-2-hydroxy-2-phenylethyl]-2H-indazol-4-yl}-5-methyl-4-(propan-2-yl)-1H-pyrazol-1-yl)-6-methyl-2H-pyrazolo[3,4-b]pyridin-2-yl]butan-1-ol] | 4.4 nM | 71 nM
6 | Cc1nc2nn(C3CCOC3)cc2cc1-n1nc(-c2cccc3nn(C[C@H](O)c4ccccc4)cc23)c(C(C)C)c1C (stereo partly drawn) [Example 14, (1R)-2-(4-{5-methyl-1-[6-methyl-2-(oxolan-3-yl)-2H-pyrazolo[3,4-b]pyridin-5-yl]-4-(propan-2-yl)-1H-pyrazol-3-yl}-2H-indazol-2-yl)-1-phenylethan-1-ol] | 9.1 nM | 76 nM
7 | Cc1c(C(C)C)c(-c2cccc3nn(C[C@H](O)c4ccc(OCCN5CCOCC5)cc4)cc23)nn1-c1cc2cn(C)nc2nc1C1CC1 [Example 15, (1R)-2-[4-(1-{6-cyclopropyl-2-methyl-2H-pyrazolo[3,4-b]pyridin-5-yl}-5-methyl-4-(propan-2-yl)-1H-pyrazol-3-yl)-2H-indazol-2-yl]-1-{4-[2-(morpholin-4-yl)ethoxy]phenyl}ethan-1-ol] | 19.1 nM | 77 nM
8 | COCc1nc2nn(C)cc2cc1-n1nc(-c2cccc3nn(C[C@H](O)c4ccccc4)cc23)c(C(C)C)c1C [Example 17, (1R)-2-(4-{1-[6-(methoxymethyl)-2-methyl-2H-pyrazolo[3,4-b]pyridin-5-yl]-5-methyl-4-(propan-2-yl)-1H-pyrazol-3-yl}-2H-indazol-2-yl)-1-phenylethan-1-ol] | 1.4 nM | 81 nM
9 | Cc1nc2nn(C(C)C)cc2cc1-n1nc(-c2cccc3nn(C[C@H](O)c4ccccc4)cc23)c(C(C)C)c1C [Example 18, (1R)-2-(4-{5-methyl-1-[6-methyl-2-(propan-2-yl)-2H-pyrazolo[3,4-b]pyridin-5-yl]-4-(propan-2-yl)-1H-pyrazol-3-yl}-2H-indazol-2-yl)-1-phenylethan-1-ol] | 14.6 nM | 81 nM

Now from value to compound:

Row | IC50 [1] | IC50 [2] | SMILES
10 | 14.2 nM | 61 nM | Cc1nc2nn(Cc3cccnc3)cc2cc1-n1nc(-c2cccc3nn(C[C@H](O)c4ccccc4)cc23)c(C(C)C)c1C [Example 6, (1R)-2-[4-(5-methyl-1-{6-methyl-2-[(pyridin-3-yl)methyl]-2H-pyrazolo[3,4-b]pyridin-5-yl}-4-(propan-2-yl)-1H-pyrazol-3-yl)-2H-indazol-2-yl]-1-phenylethan-1-ol]
11 | 14.1 nM | 63 nM | COc1ccc(Cn2cc3cc(-c4nc(-c5cccc6nn(C[C@H](O)c7ccccc7)cc56)c(C5CC5)n4C)c(C4CC4)nc3n2)cc1 [Example 9, (1R)-2-[4-(5-cyclopropyl-2-{6-cyclopropyl-2-[(4-methoxyphenyl)methyl]-2H-pyrazolo[3,4-b]pyridin-5-yl}-1-methyl-1H-imidazol-4-yl)-2H-indazol-2-yl]-1-phenylethan-1-ol]
12 | 9.3 nM | 69 nM | Cn1c(-c2cc3cn(CCN4CCOCC4)nc3nc2C2CC2)nc(-c2cccc3nn(C[C@H](O)c4ccccc4)cc23)c1C1CC1 [Example 10, (1R)-2-[4-(5-cyclopropyl-2-{6-cyclopropyl-2-[2-(morpholin-4-yl)ethyl]-2H-pyrazolo[3,4-b]pyridin-5-yl}-1-methyl-1H-imidazol-4-yl)-2H-indazol-2-yl]-1-phenylethan-1-ol]
13 | 17.5 nM | 73 nM | Cc1c(C(C)C)c(-c2cccc3nn(C[C@H](O)c4ccccc4)cc23)nn1-c1cc2cn(C)nc2nc1C1CCCO1 (stereo partly drawn) [Example 13, (1R)-2-(4-{5-methyl-1-[2-methyl-6-(oxolan-2-yl)-2H-pyrazolo[3,4-b]pyridin-5-yl]-4-(propan-2-yl)-1H-pyrazol-3-yl}-2H-indazol-2-yl)-1-phenylethan-1-ol]
14 | 6.6 nM | 79 nM | COCCn1cc2cc(-n3nc(-c4cccc5nn(C[C@H](O)c6ccccc6)cc45)c(C(C)C)c3C)c(C)nc2n1 [Example 16, (1R)-2-(4-{1-[2-(2-methoxyethyl)-6-methyl-2H-pyrazolo[3,4-b]pyridin-5-yl]-5-methyl-4-(propan-2-yl)-1H-pyrazol-3-yl}-2H-indazol-2-yl)-1-phenylethan-1-ol]
